Test results taken from patent EP2966448B1, “METHOD FOR THE PREDICTION OR PROGNOSIS OF THE RESPONSE OF A HUMAN SUBJECT SUFFERING FROM CANCER TO TREATMENT WITH AN ANTAGONIST OF THE NK1 RECEPTOR” (priority 2013, dated 2014).
Where two headings read alike, the source gives them in different places.

How the values were obtained:
[1] = tested on: Gastric carcinoma; experiment: Inhibition of primary tumor cell cultures (48 hours) vs NK1 receptor immunostaining (Example 1); assay type: cell-based; conditions: Homo sapiens, 1 micromolar, read-out: Percentage of inhibition of cell cultures
Experimental: (§1) Cell cultures. To obtain tumor cells from human primary tumors we used the method described in De Bari et al. (De Bari et al. 2001). Briefly, small pieces of the tumors were digested into a hyaluronidase solution (Sigma-Aldrich, USA) at a concentration of 1 mg/ml during 15 minutes at 37°C, and then they were treated with 6 mg/ml of collagenase type IV (Invitrogen) during 2 hours at 37°C. Consecutively, cells were washed, and resuspended in the DMEM culture medium with high concentration of glucose (Dulbecco's Modified Eagle's Medium, Invitrogen) supplemented with 1% of antibiotics-antimycotics (Invitrogen) and with 1% of sodium pyruvate (Invitrogen), and the cells were seeded in culture slides at a concentration of 10.000 cells per square centimeter. When cells reached confluence, the adherent cells were separated using sterile trypsin at 0,5% (Invitrogen) and they were used among passages 3 and 9. For the assays shown next, tumor cells were seeded on slides at a concentration of 25.000 cells per well. A total of 6 wells containing the tumor cells were used as survival control. […] All the cultures were kept during 48 hours and later on recollected for their analysis.
(§2) Immunohistochemistry techniques. The presence of NK1 receptors was also analyzed using immunohistochemistry techniques. Briefly, a sample of each of the cultures of the cell lines used in the present invention, was centrifuged (5 minutes at 1.500 rpm) and the pellet obtained was dehydrated using increasing concentrations of ethanol and, finally, xylol. Then, said dehydrated samples were embedded in paraffin, creating a block of cells. Such paraffin blocks were cut with a microtome at 5 microns thickness, and were placed on microscope slides adequate to perform immunohistochemistry techniques. Consecutively, they were de-paraffinized by immersing them in xylol, to be finally hydrated using a solution containing decreasing concentrations of ethanol, and finally submerged them into water. […] After this, the samples were left to cool down at room temperature for 10 minutes. The endogenous peroxidase activity was blocked with 3% peroxide of hydrogen for 30 minutes at room temperature. After washing the samples with 0.05 M of Tris buffer, they were incubated with 10% non-immune pork serum at for 30 minutes at room temperature. To analyze the expression of NK1 receptors, the cellular samples were incubated in the presence of anti-NK1 antibodies (S8305, Sigma-Aldrich) diluted 1:1000, overnight at 4°C. Afterwards, the samples were washed in Tris buffer 0.05 M at room temperature. The next step was the addition of Envision System-HRP (Dako) reagents for 30 minutes at room temperature. Then, the samples were washed again in Tris buffer 0.05 M and the immunoreactivity was visualized through light microscopy with a chromogenic solution containing 3,3'-Diaminobenzidine (DAB+; Dako, USA). To differentiate the cell nuclei, they were slightly stained with hematoxylin. As negative control, it was used samples not incubated with the primary antibody anti-NK1, which was replaced by non-immune serum. All the samples were evaluated.
(§3) To value the immunostaining in each of the cases six cuts were performed to be analyzed by the immunohistochemistry technique. In each of the six cuts, it was counted cells in 20 fields (magnification 400x) using an Olympus microscope (model CX31). In each field it was counted the total number of cells and the number of cells presenting immunostaining, calculating afterwards the percentage of cells which presented immunostaining.

[2] = tested on: Pancreatic carcinoma; experiment: as above; assay type: cell-based; conditions: Homo sapiens, 1 micromolar, read-out: Percentage of inhibition of cell cultures
Experimental: as §1, §2, §3

[3] = tested on: Renal cell carcinoma; experiment: as above; assay type: cell-based; conditions: Homo sapiens, 1 micromolar, read-out: Percentage of inhibition of cell cultures
Experimental: as §1, §2, §3

[4] = tested on: Breast carcinoma; experiment: as above; assay type: cell-based; conditions: Homo sapiens, 1 micromolar, read-out: Percentage of inhibition of cell cultures
Experimental: as §1, §2, §3

[5] = tested on: Thyroid carcinoma (folliculary type); experiment: as above; assay type: cell-based; conditions: Homo sapiens, 1 micromolar, read-out: Percentage of inhibition of cell cultures
Experimental: as §1, §2, §3

[6] = tested on: Malignant Fibrous Histiocytoma; experiment: as above; assay type: cell-based; conditions: Homo sapiens, 1 micromolar, read-out: Percentage of inhibition of cell cultures
Experimental: as §1, §2, §3

[7] = tested on: Ewing Sarcoma; experiment: as above; assay type: cell-based; conditions: Homo sapiens, 1 micromolar, read-out: Percentage of inhibition of cell cultures
Experimental: as §1, §2, §3

[8] = tested on: Neuroblastoma; experiment: as above; assay type: cell-based; conditions: Homo sapiens, 1 micromolar, read-out: Percentage of inhibition of cell cultures
Experimental: as §1, §2, §3

[9] = tested on: Non Hodgkin Lymphoma B; experiment: as above; assay type: cell-based; conditions: Homo sapiens, 1 micromolar, read-out: Percentage of inhibition of cell cultures
Experimental: as §1, §2, §3

[10] = tested on: Myeloma; experiment: as above; assay type: cell-based; conditions: Homo sapiens, 1 micromolar, read-out: Percentage of inhibition of cell cultures
Experimental: as §1, §2, §3

[11] = tested on: Gastric carcinoma (Adenocarcinoma); experiment: Inhibition of primary tumor cell cultures vs Kras mutation (Example 2); assay type: cell-based, human; conditions: Gastric carcinoma (Adenocarcinoma), 100 micromolar
Experimental: (§4) Cell cultures. […] Briefly, small pieces of the tumors were digested into a hyaluronidase solution (Sigma-Aldrich, USA) at a concentration of 1 mg/ml during 15 minutes at 37°C, and then they were treated with 6 mg/ml of collagenase type IV (Invitrogen) during 2 hours at 37°C. Consecutively, cells were washed, and resuspended in the DMEM culture medium with high concentration of glucose (Dulbecco's Modified Eagle's Medium, Invitrogen) supplemented with 1% of antibiotics-antimycotics (Invitrogen) and with 1% of sodium pyruvate (Invitrogen), and the cells were seeded in culture slides at a concentration of 10.000 cells per square centimeter. When cells reached confluence, the adherent cells were separated using sterile trypsin at 0,5% (Invitrogen) and they were used among passages 3 and 9. For the assays shown next, tumor cells were seeded on slides at a concentration of 25.000 cells per well. A total of 6 wells containing the tumor cells were used as survival control. […] All the cultures were kept during 48 hours and later on recollected for their analysis.
(§5) In each case the presence or not of mutations in K-ras gene was determined.
(§6) To determine the existence of mutations in the K-ras gene DNA from cancer tumor cells was extracted from samples obtained from the different cancer tumor cells, using DNA extraction kits from Takara (Madison, WI, US) or Ambion (Huntingdon, Cambridgeshire, United Kingdom), following the manufacturer's instructions, and as it has been previously published (Di Fiore F, et al. 2007). Consecutively it was analyzed by sequencing the exon 2 of the KRAS gene, , by means of PCR amplification from previously extracted cancer tumor DNA, using the following sense primer (SEQ ID NO. 15): 5'-[sequence]-3' and anti-sense primer (SEQ ID NO. 16): 5'-[sequence]-3'. After the purification using the Qiagen extraction kit, the PCR products were sequenced using the Big Dye Terminator Kit V3.1 (Applied Biosystems, Foster City, CA, U.S.) and an ABI Prism 377 or 3100 DNA sequencer (Applied Biosystems). The presence of a heterozygous mutation in the KRAS gene in cancer tumor cells of the cultures was defined as the appearance of a mutant peak of a height of at least a third of the wild type. All the sequence analysis were executed at least twice in two independent PCR.
(§7) The antibody against NK1 receptor (Table 16) was used at 1/50 concentration. The percentages of inhibition are expressed in percentage of variation in relation to control ± standard deviation.

[12] = tested on: Pancreatic carcinoma (Adenocarcinoma); experiment: as above; assay type: cell-based, human; conditions: Pancreatic carcinoma (Adenocarcinoma), 100 micromolar
Experimental: as §4, §5, §6, §7

[13] = tested on: Ovarian carcinoma (Adenocarcinoma); experiment: as above; assay type: cell-based, human; conditions: Ovarian carcinoma (Adenocarcinoma), 100 micromolar
Experimental: as §4, §5, §6, §7

[14] = NK1 receptor immunostaining Group 1 (less than 20% of the cells)
[15] = NK1 receptor immunostaining Group 2 (20-80% of the cells)
[16] = NK1 receptor immunostaining Group 3 (more than 80% of the cells)
[17] = NK1 receptor immunostaining Intensity grade 1
[18] = NK1 receptor immunostaining Intensity grade 2
[19] = NK1 receptor immunostaining Intensity grade 3
[20] = Cases with Kras non-mutated (wild type)

`Cc1cc(F)ccc1[C@H]1CNCCN1C(=O)N(C)[C@H](C)c1cc(C(F)(F)F)cc(C(F)(F)F)c1` [Vestipitant] was tested, and the inhibition at 1 µM [1, 14] was 11 ± 3%, the inhibition at 1 µM [1, 15] was 48 ± 3% and the inhibition at 1 µM [1, 16] was 92 ± 3%. The inhibition at 1 µM [1, 17] was 19 ± 4%, the inhibition at 1 µM [1, 18] was 49 ± 4% and the inhibition at 1 µM [1, 19] was 92 ± 4%. It also gave an inhibition at 1 µM [2, 14] of 11 ± 3%, an inhibition at 1 µM [2, 15] of 45 ± 2% and an inhibition at 1 µM [2, 16] of 91 ± 3%. For the same compound, the inhibition at 1 µM [2, 17] was 21 ± 4%, the inhibition at 1 µM [2, 18] was 47 ± 5% and the inhibition at 1 µM [2, 19] was 91 ± 5%. For the same compound, the inhibition at 1 µM [3, 14] was 10 ± 4%, the inhibition at 1 µM [3, 15] was 45 ± 3% and the inhibition at 1 µM [3, 16] was 93 ± 6%. It also gave an inhibition at 1 µM [3, 17] of 21 ± 3%, an inhibition at 1 µM [3, 18] of 46 ± 4% and an inhibition at 1 µM [3, 19] of 93 ± 4%. For the same compound, the inhibition at 1 µM [4, 14] was 12 ± 3%, the inhibition at 1 µM [4, 15] was 46 ± 3% and the inhibition at 1 µM [4, 16] was 93 ± 4%. For the same compound, the inhibition at 1 µM [4, 17] was 19 ± 4%, the inhibition at 1 µM [4, 18] was 45 ± 3% and the inhibition at 1 µM [4, 19] was 93 ± 3%. The inhibition at 1 µM [5, 14] was 16 ± 3%, the inhibition at 1 µM [5, 15] was 45 ± 3% and the inhibition at 1 µM [5, 16] was 95 ± 5%. The inhibition at 1 µM [5, 17] was 19 ± 4%, the inhibition at 1 µM [5, 18] was 46 ± 4% and the inhibition at 1 µM [5, 19] was 95 ± 3%. For the same compound, the inhibition at 1 µM [6, 14] was 15 ± 4%, the inhibition at 1 µM [6, 15] was 46 ± 4% and the inhibition at 1 µM [6, 16] was 91 ± 5%. The inhibition at 1 µM [6, 17] was 17 ± 3%, the inhibition at 1 µM [6, 18] was 48 ± 4% and the inhibition at 1 µM [6, 19] was 91 ± 5%. For the same compound, the inhibition at 1 µM [7, 14] was 16 ± 3%, the inhibition at 1 µM [7, 15] was 46 ± 4% and the inhibition at 1 µM [7, 16] was 90 ± 6%. For the same compound, the inhibition at 1 µM [7, 17] was 16 ± 4%, the inhibition at 1 µM [7, 18] was 47 ± 3% and the inhibition at 1 µM [7, 19] was 90 ± 6%. The inhibition at 1 µM [8, 14] was 17 ± 2%, the inhibition at 1 µM [8, 15] was 46 ± 3% and the inhibition at 1 µM [8, 16] was 93 ± 3%. It also gave an inhibition at 1 µM [8, 17] of 16 ± 1%, an inhibition at 1 µM [8, 18] of 49 ± 5% and an inhibition at 1 µM [8, 19] of 93 ± 4%. It also gave an inhibition at 1 µM [9, 14] of 14 ± 3%, an inhibition at 1 µM [9, 15] of 45 ± 5% and an inhibition at 1 µM [9, 16] of 93 ± 5%. For the same compound, the inhibition at 1 µM [9, 17] was 16 ± 4%, the inhibition at 1 µM [9, 18] was 47 ± 5% and the inhibition at 1 µM [9, 19] was 93 ± 4%. It also gave an inhibition at 1 µM [10, 14] of 15 ± 2%, an inhibition at 1 µM [10, 15] of 45 ± 4% and an inhibition at 1 µM [10, 16] of 93 ± 6%. The inhibition at 1 µM [10, 17] was 17 ± 2%, the inhibition at 1 µM [10, 18] was 47 ± 4% and the inhibition at 1 µM [10, 19] was 93 ± 5%. For the same compound, the “Percentage of inhibition of cell cultures” value ([11]; Cases with Kras mutated) was 24±4 percentage, the “Percentage of inhibition of cell cultures” value [11, 20] was 96±4 percentage and the “Percentage of inhibition of cell cultures” value ([12]; Cases with Kras mutated) was 24±4 percentage. The “Percentage of inhibition of cell cultures” value [12, 20] was 97±4 percentage, the “Percentage of inhibition of cell cultures” value ([13]; Cases with Kras mutated) was 27±5 percentage and the “Percentage of inhibition of cell cultures” value [13, 20] was 96±6 percentage.
